Source: US10856562B2, “Flavor composition and edible compositions containing same” (MARS, INCORPORATED, priority 2013, dated 2020)
Square brackets hold non-standard residues; d marks the D form. Ends that are not written are not given here. pGlu = O=C1CC[C@@H](C(=O)O)N1

Test system: panelists
Experiment: Attribute perception scores of flavor enhancers in solution (Example 6)
Assay type: in vivo, human
Design: key to Metallic / Numbing / Atringent / Salt / Sweet / Sour / Bitter / Umami / Sour, mean evaluation score in solution / Numbing, mean evaluation score in solution / Astringent / Umami FF: 15-point intensity scale, 0 = none, 15 = very strong
Settings: for Astringent / Bitter / Flinty/Mineral / Metallic / Numbing / Salt / Sour / Sweet / Umami / Umami FF / Atringent / Mineral/Flinty / Umami/brothy: solution
Description: Descriptive attributes (e.g., taste, flavor and chemical feeling factors) of three use levels of pGlu-Cys (FE-35), pGlu-Cys-Gly (FE-36), pGlu-Cys-Cys (FE-37), pGlu-Cys-Val (FE-38) and pGlu-Val-Cys (UE-30) flavor composition peptides were determined. The three use levels were as follows: 1.0 ppb, 10.0 ppb and 100.0 ppb.
Data was collected for the attributes of the product in-mouth for the use levels according to the following protocol: • The samples were analyzed for flavor by six to nine members of a panel, trained and experienced in flavor evaluation using the Spectrum™ method. Samples were evaluated across multiple panel sessions. • The strength of each attribute was rated on a 15-point scale, where 0=none and 15=very strong. • This scale incorporates the ability to use tenths of a point and therefore has the potential of 150 scale differentiations. • The scale may be expanded beyond 15 points to include extreme ratings if necessary.
A summary of the concentrations of NaCl, water and flavor composition peptides in the solution samples is described in table 24.
The panelists evaluated each sample for the attributes described by table 25.

[1] = 10.0 ppb, mean evaluation score
[2] = 100.0 ppb, mean evaluation score
[3] = Concentration 1, MAX, 15-point scale
[4] = Concentration 1, MEAN, 15-point scale
[5] = Concentration 1, MIN, 15-point scale
[6] = Concentration 10, MAX, 15-point scale
[7] = Concentration 10, MEAN, 15-point scale
[8] = Concentration 10, MIN, 15-point scale
[9] = Concentration 100, MAX, 15-point scale
[10] = Concentration 100, MEAN, 15-point scale
[11] = Concentration 100, MIN, 15-point scale

[pGlu]-Cys-Cys (cysteine pairing not given here) [FE-37]
Mineral/Flinty aromatic in solution as the concentration increases (1.0 to 100 ppb): increase very slightly
Salt perception level in solution as the concentration increases (1.0 to 100 ppb): shows no distinct pattern
Umami aromatic in solution as the concentration increases (1.0 to 100 ppb): increase very slightly
Umami feeling factor in solution as the concentration increases (1.0 to 100 ppb): increases very slightly by 100 ppb
Umami feeling factor in solution as the concentration increases (1.0 to 100 ppb, listed as FE 37): increase very slightly
Astringent (1.0 ppb, mean evaluation score): 0.0
Bitter (1.0 ppb, mean evaluation score): 0.0
Flinty/Mineral (1.0 ppb, mean evaluation score): 0.7
Metallic (1.0 ppb, mean evaluation score): 0.0
Numbing (1.0 ppb, mean evaluation score): 0.0
Salt (1.0 ppb, mean evaluation score): 2.4
Sour (1.0 ppb, mean evaluation score): 0.0
Sweet (1.0 ppb, mean evaluation score): 0.0
Umami (1.0 ppb, mean evaluation score): 0.1
Umami FF (1.0 ppb, mean evaluation score): 1.3
Astringent [1]: 0.0
Bitter [1]: 0.0
Flinty/Mineral [1]: 0.8
Metallic [1]: 0.0
Numbing [1]: 0.0
Salt [1]: 3.0
Sour [1]: 0.0
Sweet [1]: 0.1
Umami [1]: 0.2
Umami FF [1]: 1.3
Astringent [2]: 0.0
Bitter [2]: 0.0
Flinty/Mineral [2]: 0.9
Metallic [2]: 0.1
Numbing [2]: 0.0
Salt [2]: 2.8
Sour [2]: 0.0
Sweet [2]: 0.2
Umami [2]: 0.5
Umami FF [2]: 1.6
Atringent [3]: 0.0
Bitter [3]: 00
Metallic [3]: 0.0
Mineral/Flinty [3]: 1.5
Numbing [3]: 0.0
Salt [3]: 2.8
Sour [3]: 0.0
Sweet [3]: 0.0
Umami [3]: 2.0
Umami/brothy [3]: 0.8
Atringent [4]: 0.0
Bitter [4]: 0.0
Metallic [4]: 0.0
Mineral/Flinty [4]: 0.7
Numbing [4]: 0.0
Salt [4]: 2.4
Sour [4]: 0.0
Sweet [4]: 0.0
Umami [4]: 1.3
Umami/brothy [4]: 0.1
Atringent [5]: 0.0
Bitter [5]: 0.0
Metallic [5]: 0.0
Mineral/Flinty [5]: 0.0
Numbing [5]: 0.0
Salt [5]: 2.0
Sour [5]: 0.0
Sweet [5]: 0.0
Umami [5]: 0.0
Umami/brothy [5]: 0.0
Atringent [6]: 0.0
Bitter [6]: 0.0
Metallic [6]: 0.0
Mineral/Flinty [6]: 1.0
Numbing [6]: 0.0
Salt [6]: 3.5
Sour [6]: 0.0
Sweet [6]: 0.8
Umami [6]: 2.5
Umami/brothy [6]: 1.0
Atringent [7]: 0.0
Bitter [7]: 0.0
Metallic [7]: 0.0
Mineral/Flinty [7]: 0.8
Numbing [7]: 0.0
Salt [7]: 3.0
Sour [7]: 0.0
Sweet [7]: 0.1
Umami [7]: 1.3
Umami/brothy [7]: 0.2
Atringent [8]: 0.0
Bitter [8]: 0.0
Metallic [8]: 0.0
Mineral/Flinty [8]: 0.0
Numbing [8]: 0.0
Salt [8]: 2.5
Sour [8]: 0.0
Sweet [8]: 0.0
Umami [8]: 0.0
Umami/brothy [8]: 0.0
Atringent [9]: 0.0
Bitter [9]: 0.0
Metallic [9]: 0.8
Mineral/Flinty [9]: 1.5
Numbing [9]: 0.0
Salt [9]: 4.5
Sour [9]: 0.0
Sweet [9]: 1.0
Umami [9]: 3.0
Umami/brothy [9]: 1.0
Atringent [10]: 0.0
Bitter [10]: 0.0
Metallic [10]: 0.1
Mineral/Flinty [10]: 0.9
Numbing [10]: 0.0
Salt [10]: 2.8
Sour [10]: 0.0
Sweet [10]: 0.2
Umami [10]: 1.6
Umami/brothy [10]: 0.5
Atringent [11]: 0.0
Bitter [11]: 0.0
Metallic [11]: 0.0
Mineral/Flinty [11]: 0.0
Numbing [11]: 0.0
Salt [11]: 1.5
Sour [11]: 0.0
Sweet [11]: 0.0
Umami [11]: 0.0
Umami/brothy [11]: 0.0
